Results on 16 compounds are retold here after patent publication US6900238B1, “HIV protease inhibitors” (The Scripps Research Institute, priority 1995, dated 2005).

Like-named read-outs stand apart in the source and are kept apart here. Peptide text beside a SMILES is read from it. * marks the point of attachment. Cbz = O=C(OCc1ccccc1)*; NHtBu = CC(C)(C)N*

Data set [1] has as its target T1, HIV-1 protease (Human immunodeficiency virus type 1 group M subtype B, UniProt P03369).
T1 construct: HIV PR is a 99 amino acid aspartyl protease which functions as a homodimer; made in house; host or cells: no host: total chemical synthesis
Kind of data set: HIV protease inhibition, fluorogenic peptide substrate cleavage (IC50 and Ki). The format is biochemical. The following applies: for IC50: read-out: HIV PR IC50; for Ki: read-out: HIV PR Ki. The protocol: The solution was mixed and incubated over 5 minutes during which time the rate of substrate cleavage was monitored by continuously recording the change in fluorescence of the assay solution. An excitation filter of 325 nm, and an emission filter of 420 nm were used.
Determination of Ki for HIV protease was performed similarly with the following modifications. The substrate concentrations used were 57, 43, 28 and 14 μM. All other concentrations were as above. The curve fit for the data was determined and the subsequent Ki derived using a computer program based on the equation of Morrison et. al. BioChim. Biophys. ACTA 1969, 185, 269, for tight binding inhibitors.
The synthetic HIV-protease containing a thioester linkage available from CalBiochem (San Diego) can also be used. The enzyme activity was assayed with the fluorogenic substrate Ac-Thr-Ile-Nle-Phe(P—NO2)-Gln-Arg-NH2 (from CalBiochem, San Diego) according to the procedure described in the literature. Inhibition analysis was performed in the presence of the inhibitor and expressed with IC50 (the concentration of inhibitor that causes 50% inhibition of the enzyme activity).

A further data set addresses T2, FIV protease (Feline immunodeficiency virus, UniProt P16088).
T2 construct: an 18.6 kDa precursor, which auto-processed to a 13.2 kDa FIV PR plus N- and C-terminal fragments; made in house; host or cells: E. coli BL21.DE3, lys S (pT7-7 vector)
Put plainly: FIV protease inhibition, peptide substrate cleavage by HPLC (IC50 and Ki). It is filed as biochemical. The protocol: For determination of K1 and IC50 for FIV protease, 0.125 μg of the enzyme was added to a solution (100 μL final volume) containing inhibitor, 560 μM peptide substrate (sequence Gly-Lys-Glu-Glu-Gly-Pro-Pro-Gln-Ala-Tyr-Pro-Ile-Gln-Thr-Val-Asn-Gly) and 2% dimethyl sulfoxide in a 1:3 mixture of assay buffer (as above) and 4M NaClaq. solution. The solution was mixed and incubated for 10 minutes at 37° C. and the reaction quenched by addition of 8 M guanidine HCl solution containing 0.2 M sodium acetate at pH 4.2 (100 μL). The cleavage products and substrate were separated by reverse phase HPLC. Absorbance was measured at 215 nm, peak areas were determined and percent conversion to product was calculated using relative peak areas. The data were plotted as 1/V (V=rate substrate is cleaved in nmol/min) against inhibitor concentration and the—Ki determined as the point at which the resulting line intersects with 1/Vmax (Vmax=6.85 nmol/min). IC50 was determined as the inhibitor concentration at 50% inhibition. Vmax (6.85±0.7 nmol min^−1) and Km (707±70 μM) for FIV protease were determined from a plot of 1/V (V=rate in nmol/min) against 1/[S] ([S]=substrate concentration in […]). The data used was generated similarly to that for Ki with the following modifications. The substrate concentrations used were 560, 448, 336, 224, 111 and 56 μM, in the absence of inhibitor.
Purification of FIV protease: A 503 base pair Eco Rl-Bam Hl fragment containing the coding sequence of FIV protease was cloned from FIV-34TF10 (Talbott et. al. Proc. Natl. Acad. Sci. USA 86 1989, 5743) into the pT7-7 vector (Tabor et. al. Proc. Natl. Acad. Sci USA 82 1985, 1074). The 5′ end of the insert was modified by the addition of an Ndel adaptor, which provided the proper reading frame with initiation of translation from the methionine encoded in the latter site. […] The construct was transformed into E. coli strain BL21.DE3, lys S (Studier et. al. Meth. Enzymol. 1990, 185, 60) and overnight cultures were used to inoculate 15 liter fermentations, performed using Circlegrow medium (Bio 101) plus […] ampicillin, 20 μM chloramphenicol, at 37° C. The cells were allowed to reach mid-log phase, then the temperature was reduced to 24° C. and IPTG (isopropylB-thiogalactopyranoside) was added to a final concentration of 1 mM. The fermentation was allowed to proceed for 16 hours, at which time the cells were harvested by centrifugation and frozen at −70° C. in 100 g aliquots for future use.
Cells (100 g) were lysed by addition of 600 mL, 50 mM Tris-HCl, pH 8, 5 mM EDTA and 2 mM 2-mercaptoethanol to the frozen pellet. The cells lysed upon thawing and the viscous mixture was homogenized at 4° C. for 2 min in a Waring blender. The sample was centrifuged at 8,000×g for 20 min and the pellet discarded. […]

The nature of data set [2]: 13C NMR study of hydration of the ketone moiety in the presence of water. It is filed as physicochemical. To be noted: deuterated DMSO/D2O (5:1), incubation for 24 hours. The text has this:
The ketone moiety of the α-keto amide 2 is disclosed to be hydrated and is hydrogen bonding in a similar manner to that of compound 23.

The target in data set [3] is T1, HIV-1 protease. To be noted: known HIV PR inhibitor; cited from earlier work.

Consider `CC(C)(C)NC(=O)[C@@H]1CCCN1C(=O)C(=O)C(Cc1ccccc1)NC(=O)OCc1ccccc1` (mixture of isomers) [Compound 2, (3S) and (3R) 3-(N-Benzyloxycarbonyl)amino-2-keto-4-phenylbutyryl-L-prolyl-tert-butyl Amide], for which, at HIV-1 protease [1], the “fold better than the corresponding hydroxyethylamine isosteric structure as inhibitor of the HIV protease” value is reported as “approximately 300 fold”, the “fold better than the corresponding phosphinic acid derivative as inhibitor of the HIV protease” value is ~1300 fold, the IC50 turned out to be 0.7 µM and the Ki amounted to 0.214 µM. Moreover, the “time dependent inhibition of HIV PR” value on HIV-1 protease [1] (time dependent assays) is “do not exhibit time dependent inhibition”. In addition, the “inhibitory effect against FIV PR” value against FIV protease (added in concentrations up to 70 mM) is given as “no inhibitory effect”. Besides, the “hydration of the ketone moiety in the presence of water” value in data set [2] is reported as “remains unhydrated”.

Take `CC[C@H](C)[C@H](NC(=O)[C@@H]1CCCN1C(=O)C(=O)C(Cc1ccccc1)NC(=O)OCc1ccccc1)C(=O)N[C@@H](CCC(N)=O)C(=O)OC(C)(C)C` (mixture of isomers) [Compound 4]: the Ki at HIV-1 protease [1] was determined as 0.154 µM; on FIV protease (read-out: FIV PR Ki), 29 µM. Also, the IC50 on FIV protease (read-out: FIV PR IC50) was found to be 25 µM.

Turning to `COC[C@@H]1[C@@H](OC)[C@H](OC)[C@H](COC)N1C(=O)C(=O)C(Cc1ccccc1)NC(=O)OCc1ccccc1` (mixture of isomers) [Compound 12, (3S) and (3R) 3-(N-Benzyloxycarbonyl)amino-2-keto-4-phenylbutyryl-(2′(R), 5′(R)-bis(methoxymethyl]-3′(R), 4′(S)-dimethoxypyrrolidine]], at HIV-1 protease [1], the IC50 was 20 µM and the Ki came out at 20 µM. `CC(C)(C)NC(=O)C1CCCN1C(=O)C(Cc1ccccc1)NC(=O)OCc1ccccc1` (stereo not drawn) [Cbz-Phe-Pro-NBu^t] (Cbz-Phe-Pro-NHtBu; configuration not given here): the “cleavage by HIV protease” value at HIV-1 protease [1] (normal assay conditions) is listed as “not cleaved”. Besides, the “cleavage by FIV protease” value on FIV protease (normal assay conditions) is recorded as “not cleaved”. Regarding `COC(=O)[C@@H]1CCCN1C(=O)C(=O)C(Cc1ccccc1)NC(=O)OC(C)(C)C` (stereo partly shown) [Compound 1], at HIV-1 protease [1], the IC50 came to 6 µM and the Ki was 6 µM. `COCC1CCC(COC)N1CC(O)C(Cc1ccccc1)NC(=O)OCc1ccccc1` [Compound 5, N-[1-Phenyl-2(S)-[(benzyloxycarbonyl)amino]-3(R)-hydroxybutan-4-[2′ (R), 5′ (R)-bis(methoxymethyl)]-pyrrolidine]: the IC50 on HIV-1 protease [1] stood at 1800 µM. Regarding `COCC1C(OC)C(OC)C(COC)N1CC(O)C(Cc1ccccc1)NC(=O)OCc1ccccc1` [Compound 6, N-[1-Phenyl-2(S)-[(benzyloxycarbonyl)amino]-3(R)-hydroxybutan-4-[2′(R), 5′(R)-bis(methoxymethyl)-3′(R), 4′(S)-dimethoxy]-pyrrolidine], the IC50 at HIV-1 protease [1] was determined as 100 µM.

As to `COC[C@H]1CCCN1C[C@@H](O)[C@H](Cc1ccccc1)NC(=O)OCc1ccccc1` [Compound 7], on HIV-1 protease [1], the IC50 was 1600 µM. The same measure, in the same setting: under `CC(C)(C)NC(=O)[C@@H]1CCCN1C[C@@H](O)[C@H](Cc1ccccc1)NC(=O)OCc1ccccc1` [Compound 8] stands 60 µM; under `CO[C@H]1CC(C(=O)NC(C)(C)C)N(C[C@@H](O)[C@H](Cc2ccccc2)NC(=O)OCc2ccccc2)C1` (stereo partly drawn) [Compound 9, N-(1-Phenyl-2(S)-[(benzyloxycarbonyl)amino]-3(R)-hydroxybutan-4-(tert-butylamido)-4′(S)-methoxy]-pyrrolidine], 17 µM. The same measure, in the same setting: then `CO[C@@H]1C[C@@H](C(=O)NC(C)(C)C)N(C[C@@H](O)[C@H](Cc2ccccc2)NC(=O)OCc2ccccc2)C1` [Compound 10], with 2.9 µM. `CC(C)(C)NC(=O)[C@@H]1C[C@@H](OCc2ccccc2)CN1C[C@@H](O)[C@H](Cc1ccccc1)NC(=O)OCc1ccccc1` [Compound 11]: on HIV-1 protease [1], the IC50 came to 3.9 µM. On to `CC(C)(C)NC(=O)[C@@H]1CCCN1C(=O)[C@H](O)[C@H](Cc1ccccc1)NC(=O)OCc1ccccc1` [Compound 23, (2S, 3R) and (2S, 3S) 3-(N-Benzyloxycarbonyl)amino-2-hydroxy-4-phenylbutyryl-L-prolyl-tert-butyl Amide], for which the IC50 on HIV-1 protease [1] turned out to be 300 µM. For the compound `O=C1N(Cc2ccc(CO)cc2)[C@H](Cc2ccccc2)[C@H](O)[C@@H](O)[C@@H](Cc2ccccc2)N1Cc1ccc(CO)cc1` [DMP 323], on HIV-1 protease [3], the IC50 is 0.036 µM and the Ki was 0.00027 µM. As to `CSC[C@H](NC(=O)COc1cccc2cnccc12)C(=O)N[C@@H](Cc1ccccc1)[C@H](O)C(=O)N1CSC[C@H]1C(=O)NC(C)(C)C` [KNI-272, reference compound], on HIV-1 protease [1] (compared with 2), the “Ki against HIV PR relative to compound 2” value is given as “almost five orders of magnitude lower”.

As for “(2S, 3R) and (2S, 3S) 3-(N-Benzyloxycarbonyl)amino-2-hydroxy-4-phenylbutyryl-L-prolyl-tert-butyl Amide [Compound 24]”, the IC50 on HIV-1 protease [1] amounted to 2 µM.

By IC50 is commonly meant the point on the concentration scale where inhibition reaches its midpoint. One may read the Ki as the equilibrium dissociation constant of an inhibitor or competing ligand from its target.
